pEC50: −log10 of the molar value.
How the values were obtained:
[1] = biological target: T1, Human S1P1 (Homo sapiens, UniProt P21453); assay: B arrestin recruitment assay, Tango EDG1-bla U2OS cells; assay type: cell-based; settings: 18 hours agonist incubation
T1 construct: host or cells: U2OS (Tango EDG1-bla)
Protocol: (§1) Tango™ EDG1-bla U2OS cells (Human S1P1), Tango™ EDG3-bla U2OS cells (human S1P3), Tango™ EDG6-bla U2OS cells (human S1P4) and Tango™ EDG8-bla U2OS cells (human S1P5) cell lines were cultured and assayed according to manufacturers instructions with one modification; agonists incubated on the cells for 18 hours prior to addition of the GenBlazer substrate. Final DMSO concentration in the assay is 1%.

[2] = biological target: T2, human S1P3 (Homo sapiens, UniProt Q99500); assay: B arrestin recruitment assay, Tango EDG3-bla U2OS cells; assay type: cell-based; settings: 18 hours agonist incubation
T2 construct: host or cells: U2OS (Tango EDG3-bla)
T2 sequence (Q99500 whole entry): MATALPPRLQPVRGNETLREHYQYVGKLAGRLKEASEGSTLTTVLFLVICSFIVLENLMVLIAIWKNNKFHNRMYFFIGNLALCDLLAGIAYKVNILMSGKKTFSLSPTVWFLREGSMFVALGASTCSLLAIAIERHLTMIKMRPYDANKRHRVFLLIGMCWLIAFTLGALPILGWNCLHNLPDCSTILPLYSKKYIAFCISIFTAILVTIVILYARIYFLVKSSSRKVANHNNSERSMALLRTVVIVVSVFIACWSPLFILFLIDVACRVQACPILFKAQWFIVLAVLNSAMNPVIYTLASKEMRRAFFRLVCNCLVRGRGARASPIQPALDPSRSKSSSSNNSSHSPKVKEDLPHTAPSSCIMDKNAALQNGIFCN
Protocol: as §1

[3] = biological target: T3, human S1P5 (Homo sapiens, UniProt Q9H228); assay: B arrestin recruitment assay, Tango EDG8-bla U2OS cells; assay type: cell-based; settings: 18 hours agonist incubation
T3 construct: host or cells: U2OS (Tango EDG8-bla)
T3 sequence (Q9H228 whole entry): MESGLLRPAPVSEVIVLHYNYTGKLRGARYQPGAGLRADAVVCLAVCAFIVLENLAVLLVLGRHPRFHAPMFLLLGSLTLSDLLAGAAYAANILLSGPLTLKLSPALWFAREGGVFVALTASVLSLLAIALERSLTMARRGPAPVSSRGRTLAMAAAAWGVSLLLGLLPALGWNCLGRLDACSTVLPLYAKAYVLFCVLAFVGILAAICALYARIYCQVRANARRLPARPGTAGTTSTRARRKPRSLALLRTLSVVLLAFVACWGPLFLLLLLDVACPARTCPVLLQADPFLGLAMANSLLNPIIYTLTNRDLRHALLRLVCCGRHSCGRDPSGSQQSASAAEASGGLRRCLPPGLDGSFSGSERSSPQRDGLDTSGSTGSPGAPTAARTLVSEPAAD
Protocol: as §1

[4] = test system: anesthetized rats; assay: Anesthetized rat cardiovascular study (mean arterial pressure, heart rate); assay type: in vivo; settings: for effect on heart rate of acute i.v. infusion: anesthetized rats, FTY720 0.1, 0.3, 1.0 mg/kg/20 min or BAF312 0.5, 1.5, 5.0 mg/kg/20 min; for heart rate, change below baseline / mean arterial pressure, change below baseline: FTY720 i.v.
Protocol: (§2) The cardiovascular effects of FTY720 and BAF312 were tested in anesthetized rats (180–200 g). In brief, male Sprague Dawley rats (Charles River) were anesthetized with Inactin (110 mg/kg i.p.) and a tracheotomy performed. The femoral artery and veins were catheterized for measurement of mean arterial pressure and heart rate, collection of blood samples at 20-min intervals (0.2 mL/sample), and for compound infusion/hydration as previously described, [24]; blood samples were also withdrawn in vehicle-treated control rats. FTY720, infused as a hydrochloride salt (0.1, 0.3, 1.0 mg/kg/20-min free base equivalent solubilized in a 100% PEG-400 vehicle), or BAF312 (0.5, 1.5, 5.0 mg/kg/20-min solubilized in a 100% PEG-400 vehicle) were administered via three escalating 20-min infusions (0.011 mL/min) followed by a 1-hr post-treatment period. A blood sample was withdrawn at 20, 40, 60, and 120-minutes for analysis of plasma concentrations of the parent compound, and in the case of FTY720, also the phosphorylated metabolite, (S)-FTY720-P. Statistical significance (p<0.05) was based on a t-test comparing treatment change from baseline (baseline was defined as the period from −30 to 0 minutes) vs. vehicle controls change from baseline at each timepoint without adjustment for multiple comparisons. In a separate group of anesthetized rats in which left ventricular (LV) contractility was also recorded with a Millar pressure transducer introduced into the left ventricle, BAF312 was infused in the same dosing regimen as the studies described above (0.5, 1.5, 5.0 mg/kg/20-min solubilized in a 100% PEG-400 vehicle) and effects on LV dP/dtmax were recorded.

[5] = test system: anesthetized rats; assay: Left ventricular contractility (LV dP/dtmax) in anesthetized rats; assay type: in vivo; settings: anesthetized rat
Protocol: as §2, with “A blood sample was withdrawn at 20, 40, 60, and 120-minutes for analysis of plasma concentrations of the parent compound, and in the case of FTY720, also the phosphorylated metabolite, (S)-FTY720-P. Statistical significance (p<0.05) was based on a t-test comparing treatment change from baseline (baseline was defined as the period from −30 to 0 minutes) vs. vehicle controls change from baseline at each timepoint without adjustment for multiple comparisons.” left out

[6] = test system: rats; assay: Urinary sodium excretion in rats; assay type: in vivo, rat; settings: subset of telemetry rats administered FTY720; unpublished preliminary observation
[7] = test system: patients; parameters: method as in PMID 20089954; settings: 1-yr trial; cited from earlier work
[8] = test system: rats; parameters: method as in PMID 12352874; settings: FTY720 5 mg/kg/d; cited from earlier work
[9] = anesthetized rat, end of 0.1 mg/kg/20 min infusion
[10] = anesthetized rat, end of 0.3 mg/kg/20 min infusion
[11] = anesthetized rat, end of 1.0 mg/kg/20 min infusion

T1 sequence (P21453 whole entry): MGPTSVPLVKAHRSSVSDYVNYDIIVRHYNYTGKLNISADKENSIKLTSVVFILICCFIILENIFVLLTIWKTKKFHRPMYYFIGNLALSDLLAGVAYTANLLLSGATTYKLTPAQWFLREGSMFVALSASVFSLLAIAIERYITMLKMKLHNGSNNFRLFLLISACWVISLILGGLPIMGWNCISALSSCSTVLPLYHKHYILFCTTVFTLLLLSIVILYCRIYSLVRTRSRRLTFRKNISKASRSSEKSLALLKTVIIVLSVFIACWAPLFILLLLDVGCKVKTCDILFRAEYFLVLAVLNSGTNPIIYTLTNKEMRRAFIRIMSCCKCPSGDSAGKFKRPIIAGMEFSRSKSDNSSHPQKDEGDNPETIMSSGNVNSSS

SMILES | pEC50 [1] | pEC50 [2] | pEC50 [3] | effect on mean arterial pressure ([4]; anesthetized rat, BAF312 0.5, 1.5, 5.0 mg/kg/20-min i.v.) | time heart rate remained statistically reduced ([4]; anesthetized rat, BAF312 i.v. infusion) [min] | heart rate, change from baseline ([4]; anesthetized rat, BAF312 i.v., 10-min into the first infusion period (0.5 mg/kg/20 min), vehicle −6±4) [beats/min] | heart rate vs vehicle ([4]; anesthetized rat, BAF312 i.v., latter half of the 60-min infusion) | effect on heart rate of acute i.v. infusion [4] | decrease in dP/dt ([5]; BAF312, 5.0 mg/kg dose group) | LV dP/dtmax, below values in vehicle control animals ([5]; BAF312, end of the 1.5 mg/kg i.v. infusion) [%] | heart rate, change below baseline [4, 9] [beats/min] | mean arterial pressure, change below baseline [4, 9] [mmHg] | heart rate, change below baseline [4, 10] [beats/min] | mean arterial pressure, change below baseline [4, 10] [mmHg] | heart rate, change below baseline [4, 11] [beats/min] | mean arterial pressure, change below baseline [4, 11] [mmHg] | urinary sodium excretion [6] | hypertension in patients [7] | 24-hr sodium excretion values and fractional excretion of sodium [8]
CCc1cc(/C(C)=N/OCc2ccc(C3CCCCC3)c(C(F)(F)F)c2)ccc1CN1CC(C(=O)O)C1 [BAF312] | 8.60 | < 5.00 | 9.10 | no effect | 30 | −51±8 | not different from vehicle controls | acute bradycardia | not maintained | −5±4 |  |  |  |  |  |  |  |  | 
CCCCCCCCc1ccc(CCC(N)(CO)CO)cc1 [FTY720] |  |  |  |  |  |  |  | acute bradycardia |  |  | −71±26 | −9±3 | −139±37 | −22±4 | −173±26 | −24±4 | reduction in urinary sodium excretion | 2–3 mmHg | elicited reductions

— PMC3532212 (PLoS ONE, 2012)
